Test results published in patent publication US6107318A, “Naphthothiazolone derivatives active on the D3 dopaminergic receptor” (Zambon Group S.p.A., priority 1997, dated 2000).
Where a name gives a salt, the structure may show the parent alone.

Tests used:
[1] = target: T1, D1 (Homo sapiens, UniProt P21728); assay: Binding to dopaminergic receptors in cell cultures, displacement of [3H]-SCH23390, D1; conditions: CHO or NM9D cell membranes; [3H]-SCH23390 0.2 nM; non specific (-)cis-flupenthixol 1 μM; Cheng and Prusoff; read-out: Receptor binding (Ki nM) D1
T1 construct: expressed in transfected cells; host or cells: CHO or murine mesencephalic neuronal NM9D (sic)
T1 sequence (P21728 whole entry): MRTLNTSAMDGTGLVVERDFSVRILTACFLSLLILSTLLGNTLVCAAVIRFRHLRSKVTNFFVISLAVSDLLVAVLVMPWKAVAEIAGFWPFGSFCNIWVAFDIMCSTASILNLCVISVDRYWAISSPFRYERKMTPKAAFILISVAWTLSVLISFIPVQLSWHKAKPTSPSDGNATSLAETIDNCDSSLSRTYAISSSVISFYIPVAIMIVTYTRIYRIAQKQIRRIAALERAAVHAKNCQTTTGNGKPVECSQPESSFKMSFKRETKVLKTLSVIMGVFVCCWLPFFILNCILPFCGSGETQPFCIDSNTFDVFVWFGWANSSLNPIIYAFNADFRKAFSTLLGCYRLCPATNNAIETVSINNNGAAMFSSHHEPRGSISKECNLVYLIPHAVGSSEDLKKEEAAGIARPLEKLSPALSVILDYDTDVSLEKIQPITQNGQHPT
Procedure: (§1) Test for evaluating the bindings to dopaminergic receptors in cell cultures
(§2) Chinese hamster ovary cells (CHO) transfected with dopaminergic receptor subtypes and murine mesencephalic neuronal (NM9D) expressing the different subtypes of such receptors were used. The cell lines were grown on Petri dishes, in a mixture of DMEM and Ham's F12 medium 1:1 supplemented with 10% foetal bovine serum (FBS), penicillin, streptomycin, geneticin (500 μg/ml) and glutamin in a humidified 5% CO2 atmosphere at 37° C. When cells reached confluence they were washed with 10 ml of PBS (KCl 2.68 mM, KH2 PO4 1.4 mM, NaCl […] and Na2 HPO4 6.4 mM) then 5 ml of lysis buffer (Tris-HCl 10 mM and EDTA 5 mM) were added to each Petri. Cells were scrapped and the solution centrifuged for 20 minutes at 48,000 gravity, 4° C. The pellet was suspended in a minimal amount of lysis buffer and homogenised for 15 seconds. […] Saturation curves were analysed using Ligand® program to have Kd (dissociation constant) and Bmax (number of receptors/mg of protein) (Munson and Rodbar, 1980Anal. Biochem., 107, 220-239). […]
(§3) The compounds of the invention were tested at increasing concentrations for evaluating their binding to the various receptors, expressed as Ki (affinity constant) obtained through the Cheng and Prusoff equation

[2] = target: T2, D5 (Homo sapiens, UniProt P21918); assay: Binding to dopaminergic receptors in cell cultures, displacement of [3H]-SCH23390, D5; conditions: CHO or NM9D cell membranes; [3H]-SCH23390 0.2 nM; non specific (-)cis-flupenthixol 1 μM; Cheng and Prusoff; read-out: Receptor binding (Ki nM) D5
T2 construct: expressed in transfected cells; host or cells: CHO or murine mesencephalic neuronal NM9D (sic)
T2 sequence (P21918 whole entry): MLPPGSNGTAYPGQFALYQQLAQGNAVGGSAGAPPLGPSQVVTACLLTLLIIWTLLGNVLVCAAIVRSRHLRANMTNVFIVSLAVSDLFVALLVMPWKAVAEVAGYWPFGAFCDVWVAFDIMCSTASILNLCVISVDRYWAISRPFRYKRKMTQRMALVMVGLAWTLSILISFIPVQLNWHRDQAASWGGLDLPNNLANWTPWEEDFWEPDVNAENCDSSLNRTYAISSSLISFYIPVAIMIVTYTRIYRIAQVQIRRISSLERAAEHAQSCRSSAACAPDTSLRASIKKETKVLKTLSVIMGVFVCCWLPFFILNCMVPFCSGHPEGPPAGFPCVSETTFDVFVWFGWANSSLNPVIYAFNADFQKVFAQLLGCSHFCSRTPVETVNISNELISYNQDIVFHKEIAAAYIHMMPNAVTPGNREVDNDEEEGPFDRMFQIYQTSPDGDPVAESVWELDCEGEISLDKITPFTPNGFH
Procedure: as §1, §2, §3

[3] = target: T3, D2s (Homo sapiens, UniProt P14416); assay: Binding to dopaminergic receptors in cell cultures, displacement of [3H]-spiperone, D2s; conditions: CHO or NM9D cell membranes; [3H]-spiperone 0.1 nM; non specific (+)-butaclamol 1 μM; Cheng and Prusoff; read-out: Receptor binding (Ki nM) D2s
T3 construct: expressed in transfected cells; host or cells: CHO or murine mesencephalic neuronal NM9D (sic)
T3 sequence (P14416 1-414 isoform P14416-2): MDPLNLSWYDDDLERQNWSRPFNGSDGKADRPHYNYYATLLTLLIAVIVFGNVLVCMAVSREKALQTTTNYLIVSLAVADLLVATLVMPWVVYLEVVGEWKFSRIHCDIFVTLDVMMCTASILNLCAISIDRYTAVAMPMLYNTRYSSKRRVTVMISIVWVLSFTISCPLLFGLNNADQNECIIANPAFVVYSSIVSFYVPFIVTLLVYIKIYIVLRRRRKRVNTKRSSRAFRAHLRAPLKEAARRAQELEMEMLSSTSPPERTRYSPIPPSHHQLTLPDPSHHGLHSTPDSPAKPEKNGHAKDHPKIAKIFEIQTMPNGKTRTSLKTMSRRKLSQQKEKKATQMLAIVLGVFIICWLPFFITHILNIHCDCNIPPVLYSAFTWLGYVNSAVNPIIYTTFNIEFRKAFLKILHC
Procedure: as §1, §2, §3

[4] = target: T4, D3 (Homo sapiens, UniProt P35462); assay: Binding to dopaminergic receptors in cell cultures, displacement of [3H]-spiperone, D3; conditions: CHO or NM9D cell membranes; [3H]-spiperone 0.3 nM; non specific (+)-butaclamol 1 μM; Cheng and Prusoff; read-out: Receptor binding (Ki nM) D3
T4 construct: expressed in transfected cells; host or cells: CHO or murine mesencephalic neuronal NM9D (sic)
T4 sequence (P35462 whole entry): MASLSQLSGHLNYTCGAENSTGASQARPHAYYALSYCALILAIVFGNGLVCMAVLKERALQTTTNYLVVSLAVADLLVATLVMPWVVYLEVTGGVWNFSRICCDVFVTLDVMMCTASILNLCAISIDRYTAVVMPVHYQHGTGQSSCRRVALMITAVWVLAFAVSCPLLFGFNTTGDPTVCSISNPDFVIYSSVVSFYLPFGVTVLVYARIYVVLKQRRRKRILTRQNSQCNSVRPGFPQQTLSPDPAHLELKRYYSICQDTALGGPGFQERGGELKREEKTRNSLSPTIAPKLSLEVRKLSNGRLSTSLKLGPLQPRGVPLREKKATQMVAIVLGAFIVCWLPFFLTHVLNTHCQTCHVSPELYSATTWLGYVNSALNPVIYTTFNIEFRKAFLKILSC
Procedure: as §1, §2, §3

[5] = target: T5, D4 (Homo sapiens, UniProt P21917); assay: Binding to dopaminergic receptors in cell cultures, displacement of [3H]-spiperone, D4; conditions: CHO or NM9D cell membranes; [3H]-spiperone 0.2 nM; non specific (+)-butaclamol 1 μM; Cheng and Prusoff; read-out: Receptor binding (Ki nM) D4
T5 construct: expressed in transfected cells; host or cells: CHO or murine mesencephalic neuronal NM9D (sic)
T5 sequence (P21917 1-419): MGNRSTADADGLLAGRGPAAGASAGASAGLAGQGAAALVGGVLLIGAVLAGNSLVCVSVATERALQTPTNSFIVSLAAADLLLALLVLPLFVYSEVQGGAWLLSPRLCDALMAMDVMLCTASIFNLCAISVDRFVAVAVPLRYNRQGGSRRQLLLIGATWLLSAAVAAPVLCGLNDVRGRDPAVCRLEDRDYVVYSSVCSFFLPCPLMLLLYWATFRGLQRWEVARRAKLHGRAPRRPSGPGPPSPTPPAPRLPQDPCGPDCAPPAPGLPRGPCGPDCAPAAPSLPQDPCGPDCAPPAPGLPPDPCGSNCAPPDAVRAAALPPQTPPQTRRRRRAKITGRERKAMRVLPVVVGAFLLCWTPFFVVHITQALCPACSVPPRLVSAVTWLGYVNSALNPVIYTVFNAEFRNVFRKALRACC
Procedure: as §1, §2, §3

- Ki [1]: > 10000 nM
- Ki [2]: 9270 nM
- Ki [3]: 9440 nM
- Ki [4]: 92 nM
- Ki [5]: > 10000 nM
SMILES: CCCN(CCCCCCNCCc1ccc(S(C)(=O)=O)cc1)[C@H]1CCc2c(ccc3sc(=O)[nH]c23)C1 [Compound 2, (S)-6-N-propyl-N-6-[2-(4-methylsulfonylphenyl)ethylamino]hexylamino-4,5,6,7-tetrahydronaphtho(1,2-d)thiazol-2(3H)-one dihydrochloride]
